Like-named read-outs stand apart in the source and are kept apart here.
How the values were obtained:
[1] = test system: U373 (glioblastoma) cells; assay type: cell-based, human
[2] = test system: OVCAR-8 (ovarian carcinoma) cells; assay type: cell-based, human
U373 cells = assay: In vitro cytotoxicity assays with small molecules followed by Maraba virus infection; conditions: for enhancement of viral oncolysis (cell viability): viability 48 h later
[3] = test system: NCI-H226 (non-small cell lung carcinoma) cells; assay: Genome-wide synthetic lethal RNAi screen with Maraba virus infection, resazurin cell viability; conditions: synthetic lethal hits, siRNA against the gene plus Maraba virus
[4] = siRNA against the named gene plus Maraba virus, synthetic lethal hit list
[5] = synthetic lethal hits, siRNA against the gene plus Maraba virus

## NODAL
[1]; [4]
  COMPOSITE MAD SCORE U373: −2.315
[2]; [4]
  COMPOSITE MAD SCORE OVCAR8: −4.721

## COc1cc(-c2cccc(C(N)=O)c2)cc(C=O)c1O [Compound 2, 3′-formyl-4′-hydroxy-5′-methoxy-[1,1′-biphenyl]-3-carboxamide]
U373 cells
  lowest, maximally effective dose in cell culture experiments: 20 µM
U373 cells; U373, across a range of doses and MOIs
  combination index (CI) with Maraba virus: < 1.0
U373 cells; U373, drug 4 h prior to Maraba virus infection
  enhancement of viral oncolysis (cell viability): but not 4 hours
U373 cells; U373, drug 48 h prior to Maraba virus infection
  enhancement of viral oncolysis (cell viability): greatly enhanced viral oncolysis

## tunicamycin [reference compound]
U373 cells; pulse 48 hours before virus infection (5 ug/mL 24 h, 24 h washout)
  virus-mediated killing after chemically induced ER preload: enhance virus-mediated killing

## BMP4
[1]; [5]
  COMPOSITE MAD SCORE U373: −2.038
[3]
  COMPOSITE MAD SCORE NCIH226: −2.642
[2]; [5]
  COMPOSITE MAD SCORE OVCAR8: −2.516
